Tested on: serotonin uptake
Experiment: Inhibition of serotonin uptake (in vitro): inhibition of synaptosomal reuptake of tritiated serotonin
Assay type: biochemical
Protocol: Determination of endogenous monoaminergic re-uptake inhibition values both for serotonin and norepinephrine was accomplished using test methods described by P. Skolnick, et al., Br. J. Pharmacology (1985), 86, pp. 637-644; with only minor modifications. In vitro IC50 (nM) test values were determined for representative compounds of Formula I based on their inhibition of synaptosomal reuptake of tritiated serotonin. Test data IC50 values lower than 500 nM are considered to reflect activity as an inhibitor of serotonin reuptake. Compounds with Ic50 values lower than 100 nM comprise preferred compounds.

Point of comparison: `COc1cncnc1N1CCN(CCCc2c[nH]c3ccc(Cl)cc23)C(C)C1` (stereo not shown) [Example 32], IC50 2.1 nM. Against it:
- COc1cncnc1N1CCN(CCCc2c[nH]c3ccc(F)cc23)CC1 [Example 24, 3-[3-[4-(5-Methoxy-4-pyrimidinyl)-1-piperazinl]propyl]-5-fluoroindole] — 7-fold lower, 0.3 nM
- COc1cncnc1N1CCN(CCCc2cn(C)c3ccccc23)C(C)C1 (stereo not shown) [Example 36] — 2.2-fold higher, 4.7 nM
- COc1cncnc1N1CCN(CCCc2c[nH]c3cc(F)c(F)cc23)C(C)C1 (stereo not shown) [Example 30] — within 1.5-fold, 1.46 nM
- COc1cncnc1N1CCN(CCc2c[nH]c3cc(F)c(F)cc23)CC1 [Example 34] — within 1.5-fold, 3.1 nM
- CCOc1cncnc1N1CCN(CCCc2c[nH]c3ccccc23)CC1 [Example 27] — 3-fold higher, 6.35 nM
- CCC1CN(c2ncncc2OC)CCN1CCCc1c[nH]c2ccccc12 (stereo not shown) [Example 33] — within 1.5-fold, 2.64 nM
- COc1cncnc1N1CCN(CCCc2c[nH]c3ccccc23)CC1 [Example 28] — 2-fold higher, 4.3 nM
- COc1cncnc1N1CCN(CCc2c[nH]c3ccc(F)cc23)C(C)C1 (stereo not shown) [Example 35] — within 1.5-fold, 3.1 nM
- COc1cncnc1N1CCN(CCCc2c[nH]c3ccc(F)cc23)C(C)C1 (stereo not shown) [Example 23, 3-[3-[4-(5-Methoxy-4-pyrimidinyl)-2-methyl-1-piperazinyl]propyl]-5-fluoroindole] — 70-fold lower, 0.03 nM
- CCOc1cncnc1N1CCN(CCCc2c[nH]c3ccccc23)C(C)C1 (stereo not shown) [Example 38] — 6.4-fold higher, 13.4 nM
- COc1cc(N2CCN(CCCc3c[nH]c4ccccc34)C(C)C2)ncn1 (stereo not shown) [Example 39] — 4.4-fold higher, 9.3 nM
- COc1cncnc1N1CCN(CCCc2c[nH]c3ccc(Cl)cc23)CC1 [Example 29] — within 1.5-fold, 2.9 nM
- COc1cc(N2CCN(CCCc3c[nH]c4ccccc34)CC2)ncn1 [Example 37] — 2.8-fold higher, 5.85 nM
- COc1cncnc1N1CCN(CCc2c[nH]c3ccc(F)cc23)CC1 [Example 31] — 2.3-fold lower, 0.92 nM
- COc1cncnc1N1CCN(CCCc2c[nH]c3cc(F)ccc23)C(C)C1 (stereo not shown) [Example 25, 3-[3-[4-(5-Methoxy-4-pyrimidinyl)-2-methyl-1-pioerazinyl]-propyl]-6-fluoroindole] — 1.8-fold higher, 3.7 nM

— patent US5077293A, “1-indolyalkyl-4-(alkoxypyrimidinyl)piperazines” (Bristol-Myers Squibb Co., priority 1990, dated 1991)
